Laboratory results reported in patent US20090233845A1, “Methods and compositions for non-covalently enhanced receptor binding” (priority 2008, published 2009).

System: NIH/3T3 cells
Experiment: Mitogenic assay on FGF-2-responsive cells (heparin control test, CellTiter AQueous One, OD 490 nm)
Format: cell-based
Protocol: We developed a mitogenic assay on cells responsive to FGF-2. The assay is run in the presence of a submaximal concentration of FGF-2 (10 ng/mL). […] At 72 h of incubation in the presence of 10 ng/mL of FGF-2, the addition of 10 μg/mL of heparin increased mitogenic activity by 58%.
Organic compounds of the invention may be assayed for their effect on FGF-2 stimulation of growth using this assay. […] For example, a “hit” can be defined as an increase in activity of >50%, in the presence of 10 ng/mL FGF-2 (with no added heparin).
The details of the assay are as follows.
1. Trypsinize cells. Remove a small aliquot of cell suspension for cell count and viability.
4. Transfer 80 μL of cell suspension to the appropriate wells of three 96-well tissue culture-treated plates.
5. Incubate plates at 37° C./5% CO2 for 18 hr.
Add 80 μL/well DMEM/0.1% BCS/1% Pen-Strep (0.1% BCS media), and incubate cells for 24 hr at 37° C./5% CO2.
A mass of 20 mg of heparin was dissolved in 2.0 mL of 0.1% BCS media for a final concentration of 10 mg/mL.
Preparation of 10× Heparin Solution: The 10 mg/mL heparin solution was diluted to 100 μg/mL by adding 50 μL of the 10 mg/mL solution to 4,950 μL of 0.1% BCS media.
A 1:10 intermediate dilution was prepared by adding 10 μL of 100 μg/mL FGF-2 stock to 90 μL of 1×PBS/0.5% BSA, for a final concentration of 10 μg/mL.
Preparation of 10×FGF-2: The 1:10 intermediate was further diluted by adding 50 μL to 4,950 μL of 0.1% BCS media, for a final concentration of 100 ng/mL. The 100 ng/mL FGF-2 solution was diluted by adding 500 μL to 4,500 μL of 0.1% BCS media, for a final concentration of 10 ng/mL.
6. 5× Heparin/FGF-2 Dilutions: Mix equal volumes of 10×FGF-2 (Steps 3 and 4) and 10× heparin stocks (Step 5) to create the 5× Treatment Intermediates as shown in Tables 3 and 4.
Add 20 μL of CellTiter AQueous One Solution to each of the treated wells.
Incubate for 1 hr at 37° C./5% CO2.

[1] = heparin 0.001 μg/mL, 1 ng/mL FGF-2, 24 hr
[2] = heparin 0.001 μg/mL, 1 ng/mL FGF-2, 48 hr
[3] = heparin 0.001 μg/mL, 1 ng/mL FGF-2, 72 hr
[4] = heparin 0.001 μg/mL, 10 ng/mL FGF-2, 24 hr
[5] = heparin 0.001 μg/mL, 10 ng/mL FGF-2, 48 hr
[6] = heparin 0.001 μg/mL, 10 ng/mL FGF-2, 72 hr
[7] = heparin 0.01 μg/mL, 1 ng/mL FGF-2, 24 hr
[8] = heparin 0.01 μg/mL, 1 ng/mL FGF-2, 48 hr
[9] = heparin 0.01 μg/mL, 1 ng/mL FGF-2, 72 hr
[10] = heparin 0.01 μg/mL, 10 ng/mL FGF-2, 24 hr
[11] = heparin 0.01 μg/mL, 10 ng/mL FGF-2, 48 hr
[12] = heparin 0.01 μg/mL, 10 ng/mL FGF-2, 72 hr
[13] = heparin 0.1 μg/mL, 1 ng/mL FGF-2, 24 hr
[14] = heparin 0.1 μg/mL, 1 ng/mL FGF-2, 48 hr
[15] = heparin 0.1 μg/mL, 1 ng/mL FGF-2, 72 hr
[16] = heparin 0.1 μg/mL, 10 ng/mL FGF-2, 24 hr
[17] = heparin 0.1 μg/mL, 10 ng/mL FGF-2, 48 hr
[18] = heparin 0.1 μg/mL, 10 ng/mL FGF-2, 72 hr
[19] = heparin 1 μg/mL, 1 ng/mL FGF-2, 24 hr
[20] = heparin 1 μg/mL, 1 ng/mL FGF-2, 48 hr
[21] = heparin 1 μg/mL, 1 ng/mL FGF-2, 72 hr
[22] = heparin 1 μg/mL, 10 ng/mL FGF-2, 24 hr
[23] = heparin 1 μg/mL, 10 ng/mL FGF-2, 48 hr
[24] = heparin 1 μg/mL, 10 ng/mL FGF-2, 72 hr
[25] = heparin 10 μg/mL, 1 ng/mL FGF-2, 24 hr
[26] = heparin 10 μg/mL, 1 ng/mL FGF-2, 48 hr
[27] = heparin 10 μg/mL, 1 ng/mL FGF-2, 72 hr
[28] = heparin 10 μg/mL, 10 ng/mL FGF-2, 24 hr
[29] = heparin 10 μg/mL, 10 ng/mL FGF-2, 48 hr
[30] = heparin 10 μg/mL, 10 ng/mL FGF-2, 72 hr

Heparin
Mean OD490 [1]: 0.477
Percent Difference from 0 μg/mL Heparin Mean OD490 [1]: 2.6%
Mean OD490 [2]: 0.222
Percent Difference from 0 μg/mL Heparin Mean OD490 [2]: 12.7%
Mean OD490 [3]: 0.208
Percent Difference from 0 μg/mL Heparin Mean OD490 [3]: 4.5%
Mean OD490 [4]: 0.912
Percent Difference from 0 μg/mL Heparin OD490 [4]: 1.6%
Mean OD490 [5]: 0.641
Percent Difference from 0 μg/mL Heparin OD490 [5]: −3.0%
Mean OD490 [6]: 0.416
Percent Difference from 0 μg/mL Heparin OD490 [6]: 9.2%
Mean OD490 [7]: 0.430
Percent Difference from 0 μg/mL Heparin Mean OD490 [7]: −7.5%
Mean OD490 [8]: 0.200
Percent Difference from 0 μg/mL Heparin Mean OD490 [8]: 1.5%
Mean OD490 [9]: 0.199
Percent Difference from 0 μg/mL Heparin Mean OD490 [9]: 0.0%
Mean OD490 [10]: 0.859
Percent Difference from 0 μg/mL Heparin OD490 [10]: −4.3%
Mean OD490 [11]: 0.641
Percent Difference from 0 μg/mL Heparin OD490 [11]: −3.0%
Mean OD490 [12]: 0.417
Percent Difference from 0 μg/mL Heparin OD490 [12]: 9.4%
Mean OD490 [13]: 0.419
Percent Difference from 0 μg/mL Heparin Mean OD490 [13]: −9.9%
Mean OD490 [14]: 0.226
Percent Difference from 0 μg/mL Heparin Mean OD490 [14]: 14.7%
Mean OD490 [15]: 0.199
Percent Difference from 0 μg/mL Heparin Mean OD490 [15]: 0.0%
Mean OD490 [16]: 0.863
Percent Difference from 0 μg/mL Heparin OD490 [16]: −3.9%
Mean OD490 [17]: 0.830
Percent Difference from 0 μg/mL Heparin OD490 [17]: 25.6%
Mean OD490 [18]: 0.459
Percent Difference from 0 μg/mL Heparin OD490 [18]: 20.5%
Mean OD490 [19]: 0.398
Percent Difference from 0 μg/mL Heparin Mean OD490 [19]: −14.4%
Mean OD490 [20]: 0.202
Percent Difference from 0 μg/mL Heparin Mean OD490 [20]: 2.5%
Mean OD490 [21]: 0.212
Percent Difference from 0 μg/mL Heparin Mean OD490 [21]: 6.5%
Mean OD490 [22]: 0.938
Percent Difference from 0 μg/mL Heparin OD490 [22]: 4.5%
Mean OD490 [23]: 0.978
Percent Difference from 0 μg/mL Heparin OD490 [23]: 48.0%
Mean OD490 [24]: 0.583
Percent Difference from 0 μg/mL Heparin OD490 [24]: 53.0%
Mean OD490 [25]: 0.433
Percent Difference from 0 μg/mL Heparin Mean OD490 [25]: −6.9%
Mean OD490 [26]: 0.196
Percent Difference from 0 μg/mL Heparin Mean OD490 [26]: −0.5%
Mean OD490 [27]: 0.188
Percent Difference from 0 μg/mL Heparin Mean OD490 [27]: −5.5%
Mean OD490 [28]: 1.071
Percent Difference from 0 μg/mL Heparin OD490 [28]: 19.3%
Mean OD490 [29]: 0.992
Percent Difference from 0 μg/mL Heparin OD490 [29]: 50.1%
Mean OD490 [30]: 0.602
Percent Difference from 0 μg/mL Heparin OD490 (increase in mitogenic activity) [30]: 58.0%
Percent Difference from 0 μg/mL Heparin OD490 (increase in mitogenic activity) (heparin 10 μg/mL, 10 ng/mL FGF-2, 72 hr, listed as heparin): 58%
FGF-2 activity in the presence of heparin (increasing concentrations of heparin, FIG. 18): increased with increasing concentrations of heparin

FGF-2: basic fibroblast growth factor (bFGF, FGF-2), receptor-binding ligand
Mean OD490 (1 ng/mL FGF-2, 0 μg/mL heparin, 24 hr): 0.465
Mean OD490 (1 ng/mL FGF-2, 0 μg/mL heparin, 48 hr): 0.197
Mean OD490 (1 ng/mL FGF-2, 0 μg/mL heparin, 72 hr): 0.199
Mean OD490 (10 ng/mL FGF-2, 0 μg/mL heparin, 24 hr): 0.898
Mean OD490 (10 ng/mL FGF-2, 0 μg/mL heparin, 48 hr): 0.661
Mean OD490 (10 ng/mL FGF-2, 0 μg/mL heparin, 72 hr): 0.381
Mean OD490 (assay control, 10 ng/mL FGF-2, 24 hr): 0.884
Mean OD490 (assay control, 10 ng/mL FGF-2, 48 hr): 0.737
Mean OD490 (assay control, 10 ng/mL FGF-2, 72 hr): 0.401
